According to patent publication US20220259235A1, “EGFR Inhibitor, Composition, and Preparation Method Therefor” (BETTA PHARMACEUTICALS CO., LTD, priority 2019, published 2022):

Columns and labels:
EGFR Δ19del/T790M/C797S = EGFR Δ19del/T790M/C797S (Homo sapiens, UniProt P00533, T790M/C797S, form not given); assay: EGFR Δ19del/T790M/C797S kinase test (mobility shift, Caliper EZ Reader); type: biochemical; details: kinase enzymatic activity
Description: Mobility variation analysis was performed to determine the affinity of the compound for EGFRΔ19del/T790M/C797S. The enzymatic reaction scheme is as follows:
1. Prepare 1* kinase buffer as follows:
2. Preparation of compound concentration gradient: The test compound was tested with an initial concentration of 3000 nM or 100 nM, diluted in a 384 source plate to a 100% DMSO solution with 100-fold final concentration, and the compound is 3-fold diluted with Precision to 10 concentrations. A dispenser Echo 550 was used to transfer 250 nL 100-fold final concentration of the compound to the target plate OptiPlate-384F.
3. Prepare 2.5-fold final concentration of kinase solution with 1×Kinase buffer;
4. Add 10 μL of 2.5-fold final concentration of kinase solution to the compound well and the positive control well; add 10 μL of 1×Kinase buffer to the negative control well.
5. Centrifuge at 1000 rpm for 30 seconds, shake the reaction plate for well mixation, and then incubate at room temperature for 10 minutes.
6. Prepare a mixture of ATP and Kinase substrate at 5/3-fold final concentration with 1×Kinase buffer.
7. Add 15 μL mixture of 5/3-fold final concentration of ATP and substrate to start reaction.
8. Centrifuge the 384-well plate at 1000 rpm for 30 seconds, shake it well and then incubate it at room temperature for corresponding time.
9. Add 30 μL of stop detection solution to stop the kinase reaction, centrifuge at 1000 rpm for 30 seconds, shake it well.
10. Read conversion rate with Caliper EZ Reader.
% Inhibition=((Conversion%_max−Conversion%_sample)/(Conversion%_max−Conversion%_min))*100
Wherein: Conversion%_sample is the sample conversion rate reading; Conversion%_min: Mean value of negative control wells, representing the conversion rate reading of wells without enzymatic activity; Conversion%_max: Mean value of positive control wells, representing the conversion rate reading of wells without compound inhibition.
The dose-effect curve was fitted with concentration log value as X-axis and percentage inhibition rate as Y-axis. Log (inhibitor) vs. Response—Variable Slope of GraphPad Prism 5 was used to fit the dose-effect curve to obtain IC50 value of enzymatic activity for each compound.
The calculation formula is as Y=Bottom (Top−Bottom)/(1+10^((LogIC50−X)*HillSlope)).
As illustrated in examples, IC50 value is within the following range for the compound of the present invention: “A” represents “IC50≤1nM”; “B” represents “1 nM<IC50≤100nM”.

Ba/F3-Δ19del/T790M/C797S = Ba/F3-Δ19del/T790M/C797S (Homo sapiens, UniProt P00533, T790M/C797S, cells depend on it, form not given); assay: Ba/F3-Δ19del/T790M/C797S cell proliferation assay (CellTiter Glo, 72 h); type: cell-based; details: CTG, class symbols, read-out: BaF3 Δ19del/T790M/C797S IC50
Description: (§1) Cell line: Ba/F3 cells with stable overexpression of Δ19del/T790M/C797S or L858R/T790M/C797S mutant genes, named Ba/F3-Δ19del/T790M/C797S and Ba/F3-L858R/T790M/C797S, and A431 EGFR wild-type cell line.
(§2) RPMI 1640 and 10% FBS and 1% PS; _EM, 10% PBS and 1% PS
(§3) a) Dilute the test compound (20 mM stock solution) to 10 mM with 100% DMSO as the starting concentration, and then serially dilute 3 times with a “9+0” concentration in 96-well dilution plate (Cat #P-05525, Labcyte);
(§4) b) Dilute compound solution thereof to 1:100 in medium to prepare 10-fold working solution;
(§5) a) Centrifuge the growth cells in logarithmic phase at 1000 rpm for 5 minutes, resuspend the cells in culture medium, and then count the cells;
(§6) b) Inoculate the cells into a 96-well cell culture plate with a density of 2000 cells/well;
(§7) a) The compound prepared in Step 2 was added to a cell plate with 15 μL per well at final concentrations of 1000, 333, 111.1, 37, 12.3, 4.1, 1.4, 0.5, 0.2, and 0 nM. The final concentration of DMSO was 0.1%. The blank control well is with medium (0.1% DMSO).
(§8) b) Incubate cells in an incubatorother 72 hours;
(§9) a) Take out the 96-well cell culture plate and add 50 μl CTG reagent (CellTiter Glo kit, promega, Cat #G7573);
(§10) b) Shake the plate for 2 minutes and let cool at room temperature for 10 minutes,
(§11) c) Read luminous signal value with Perkin Elmer reader.
(§12) Analysis of Experimental Data
(§13) The data were analyzed by GraphPad Prism 6.0 software to obtain the fitting curve of compound activity.
(§14) Fining compound IC50 from nonlinear regression equation:
(§15) Y=Min+(Max−Min)/(1+10^((LogIC50−X)*slope));
(§16) X: Logarithm of compound concentration; Y: luminous signal
(§17) As illustrated in examples, IC50 value is within the following range for the compound of the present invention: “A” represents “IC50≤50 nM”; “B” represents “50 nM<IC50<100 nM”.

Ba/F3-L858R/T790M/C797S = Ba/F3-L858R/T790M/C797S (Homo sapiens, UniProt P00533, T790M/C797S/L858R, cells depend on it); assay: Ba/F3-L858R/T790M/C797S cell proliferation assay (CellTiter Glo, 72 h); type: cell-based; details: CTG, class symbols, read-out: BaF3 L858R/T790M/C797S IC50
Description: as §1, §2, §3, §4, §5, §6, §7, §8, §9, §10, §11, §12, §13, §14, §15, §16, §17

Ba/F3-L858R/T790M/C797S, sequence (P00533 whole entry T790M/C797S/L858R): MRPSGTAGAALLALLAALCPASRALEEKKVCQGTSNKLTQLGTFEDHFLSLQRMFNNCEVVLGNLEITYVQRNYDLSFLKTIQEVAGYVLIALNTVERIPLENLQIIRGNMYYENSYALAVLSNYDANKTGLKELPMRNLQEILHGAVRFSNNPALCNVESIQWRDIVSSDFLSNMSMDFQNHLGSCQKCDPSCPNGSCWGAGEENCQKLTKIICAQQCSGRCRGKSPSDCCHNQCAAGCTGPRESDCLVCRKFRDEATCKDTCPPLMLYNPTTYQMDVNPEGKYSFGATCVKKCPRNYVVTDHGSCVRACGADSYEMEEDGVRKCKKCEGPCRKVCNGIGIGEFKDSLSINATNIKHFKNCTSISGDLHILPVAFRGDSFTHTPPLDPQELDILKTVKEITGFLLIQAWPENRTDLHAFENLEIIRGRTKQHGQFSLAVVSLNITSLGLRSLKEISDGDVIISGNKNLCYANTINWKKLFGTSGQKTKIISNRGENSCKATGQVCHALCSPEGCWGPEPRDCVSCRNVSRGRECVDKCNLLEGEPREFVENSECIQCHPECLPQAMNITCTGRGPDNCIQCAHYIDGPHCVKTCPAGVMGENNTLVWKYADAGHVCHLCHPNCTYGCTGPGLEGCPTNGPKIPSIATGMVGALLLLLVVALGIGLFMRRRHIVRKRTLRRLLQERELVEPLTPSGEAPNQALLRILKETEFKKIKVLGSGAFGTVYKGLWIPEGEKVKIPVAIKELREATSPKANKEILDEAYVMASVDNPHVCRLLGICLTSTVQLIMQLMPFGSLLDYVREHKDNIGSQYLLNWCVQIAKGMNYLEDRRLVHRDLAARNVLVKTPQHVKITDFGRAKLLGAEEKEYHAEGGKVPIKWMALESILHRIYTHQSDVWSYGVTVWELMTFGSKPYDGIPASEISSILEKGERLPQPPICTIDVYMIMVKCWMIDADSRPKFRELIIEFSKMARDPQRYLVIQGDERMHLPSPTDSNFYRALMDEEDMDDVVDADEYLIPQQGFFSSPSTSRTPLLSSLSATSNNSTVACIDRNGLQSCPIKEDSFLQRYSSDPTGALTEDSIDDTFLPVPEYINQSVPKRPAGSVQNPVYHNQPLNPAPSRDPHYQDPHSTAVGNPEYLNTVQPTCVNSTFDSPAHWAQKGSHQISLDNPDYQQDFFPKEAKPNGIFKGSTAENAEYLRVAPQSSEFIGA
EGFR Δ19del/T790M/C797S, sequence (P00533 with tags, fused parts or gaps DEL746-750/T790M/C797S, form open): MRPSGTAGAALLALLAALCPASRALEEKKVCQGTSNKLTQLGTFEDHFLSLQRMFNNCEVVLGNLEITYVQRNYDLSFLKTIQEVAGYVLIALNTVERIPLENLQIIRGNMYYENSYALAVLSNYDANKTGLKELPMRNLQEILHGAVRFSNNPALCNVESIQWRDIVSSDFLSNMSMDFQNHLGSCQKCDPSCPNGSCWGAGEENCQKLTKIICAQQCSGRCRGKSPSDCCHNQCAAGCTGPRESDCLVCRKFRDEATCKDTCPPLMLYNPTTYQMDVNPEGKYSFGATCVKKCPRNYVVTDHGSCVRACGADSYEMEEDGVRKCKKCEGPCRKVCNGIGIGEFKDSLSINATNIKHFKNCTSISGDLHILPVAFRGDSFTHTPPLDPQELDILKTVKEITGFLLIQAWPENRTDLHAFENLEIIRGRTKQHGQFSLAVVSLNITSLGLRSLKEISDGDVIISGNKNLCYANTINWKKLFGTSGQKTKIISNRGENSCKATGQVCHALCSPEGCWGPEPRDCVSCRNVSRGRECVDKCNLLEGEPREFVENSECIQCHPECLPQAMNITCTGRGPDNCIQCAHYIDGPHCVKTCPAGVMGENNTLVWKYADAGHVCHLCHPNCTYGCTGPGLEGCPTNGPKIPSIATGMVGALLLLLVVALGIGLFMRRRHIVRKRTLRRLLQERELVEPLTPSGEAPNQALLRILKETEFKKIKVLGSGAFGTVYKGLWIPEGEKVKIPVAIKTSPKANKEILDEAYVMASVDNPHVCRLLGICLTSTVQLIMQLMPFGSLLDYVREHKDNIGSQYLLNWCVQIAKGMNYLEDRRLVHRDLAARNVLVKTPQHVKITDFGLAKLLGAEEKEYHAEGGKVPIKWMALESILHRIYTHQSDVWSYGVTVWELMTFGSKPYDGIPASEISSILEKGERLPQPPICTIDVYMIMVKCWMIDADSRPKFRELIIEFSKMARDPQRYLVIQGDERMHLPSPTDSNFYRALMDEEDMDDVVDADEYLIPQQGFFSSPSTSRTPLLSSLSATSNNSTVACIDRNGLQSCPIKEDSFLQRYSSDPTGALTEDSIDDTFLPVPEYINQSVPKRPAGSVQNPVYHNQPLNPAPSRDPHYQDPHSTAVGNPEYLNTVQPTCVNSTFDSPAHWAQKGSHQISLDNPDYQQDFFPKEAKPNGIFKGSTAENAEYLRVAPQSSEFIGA
Ba/F3-Δ19del/T790M/C797S, sequence (P00533 with tags, fused parts or gaps DEL746-750/T790M/C797S, form open): as above

| IC50 (EGFR Δ19del/T790M/C797S; class symbols) [nM] | GI50 (Ba/F3-Δ19del/T790M/C797S) [nM] | GI50 (Ba/F3-L858R/T790M/C797S) [nM] | IC50 (EGFR Δ19del/T790M/C797S; numeric values) [nM] | SMILES |
| --- | --- | --- | --- | --- |
| ≤ 1 | ≤ 50 | ≤ 50 | – | COc1cc(N2CCC(N3CCCC3)CC2)c(-c2cnn(C)c2)cc1Nc1ncc(Cl)c(Nc2ccc(C)c(C)c2P(C)(C)=O)n1 [Compound 6] |
| 1 to 100 | 50 to 100 | 50 to 100 | – | COc1cc(N2CCC3(CC2)CN(C)C3)c(-c2cnn(C)c2)cc1Nc1ncc(Cl)c(Nc2ccc(C)c(C)c2P(C)(C)=O)n1 [Compound 7] |
| ≤ 1 | ≤ 50 | ≤ 50 | – | COc1cc(N2CCN3CCCC[C@@H]3C2)c(-c2cnn(C)c2)cc1Nc1ncc(Cl)c(Nc2ccc(C)c(C)c2P(C)(C)=O)n1 [Compound 8, (R)-(6-((5-chloro-2-((2-methoxy-5-(1-methyl-1H-pyrazol-4-yl)-4-(octahydro-2hydro-Pyridine[1,2-a]pyrazine-2-yl)phenyl)amino)pyrimidine-4-yl)amino)-2,3-dimethylphenyl)dimethylphosphine oxide] |
| ≤ 1 | ≤ 50 | ≤ 50 | – | COc1cc(N2CCC(N3CCN(C)CC3)CC2)c(-c2cnn(C)c2)cc1Nc1ncc(Br)c(Nc2ccc3nccnc3c2P(C)(C)=O)n1 [Compound 10] |
| ≤ 1 | ≤ 50 | ≤ 50 | – | COc1cc(N2CCC(N3CCCCC3)CC2)c(-c2cnn(C)c2)cc1Nc1ncc(Br)c(Nc2ccc3nccnc3c2P(C)(C)=O)n1 [Compound 11, (6-((2-((4-([1,4′-Bipiperidine]-1′-yl)-2-methoxy-5-(1-methyl-1H-pyrazole-4-yl)phenyl)amino)-5-bromopyrimidin-4-yl)amino)quinoxalin-5-yl)dimethylphosphine oxide] |
| ≤ 1 | ≤ 50 | ≤ 50 | – | COc1cc(N2CCC(N3CCN(C)CC3)CC2)c(-c2cnn(C)c2)cc1Nc1ncc(Br)c(Nc2ccc(C3CC3)c(C)c2P(C)(C)=O)n1 [Compound 12] |
| ≤ 1 | ≤ 50 | ≤ 50 | – | COc1cc(N2CCC(N3CCCCC3)CC2)c(-c2cnn(C)c2)cc1Nc1ncc(Br)c(Nc2ccc(C3CC3)c(C)c2P(C)(C)=O)n1 [Compound 13] |
| ≤ 1 | ≤ 50 | ≤ 50 | – | COc1cc(N2CCC(N3CCN(C)CC3)CC2)c(-c2cnn(C)c2)cc1Nc1ncc(Br)c(Nc2ccc(C)c(C)c2P(C)(C)=O)n1 [Compound 14, (6-((5-Bromo-2-((2-methoxy-5-(1-methyl-1h-pyrazol-4-yl)-4-(4-(4-methylpiperazine-1-yl)piperidine-1-yl)phenyl)amino)pyrimidine-4-yl)amino)-2,3-dimethylphenyl)dimethylphosphine oxide] |
| ≤ 1 | ≤ 50 | ≤ 50 | – | COc1cc(N2CCC(N3CCCCC3)CC2)c(-c2cnn(C)c2)cc1Nc1ncc(Br)c(Nc2ccc(C)c(C)c2P(C)(C)=O)n1 [Compound 15, (6-((2-((4-([1,4′-Bipiperidine]-1′-yl)-2-methoxy-5-(1-methyl-1H-pyrazole-4-yl)phenyl)amino)-5-bromopyrimidine-4-yl)amino)-2,3-dimethylphenyl)dimethylphosphine oxide] |
| ≤ 1 | ≤ 50 | ≤ 50 | – | COc1cc(N2CCOCC2)c(-c2cnn(C)c2)cc1Nc1ncc(Br)c(Nc2ccc3nccnc3c2P(C)(C)=O)n1 [Compound 16] |
| – | – | – | 1.4 | CCn1cc(-c2cc(Nc3nccc(Nc4ccc(C)c(C)c4P(C)(C)=O)n3)c(OC)cc2N2CCOCC2)cn1 [Compound 23, (6-(2-(5-((1-Ethyl-1hydro-pyrazol-4-yl)-2-methoxy-4-morpholinophenyl)amino)pyrimidine-4-amino)-2,3dimethylphenyl) dimethylphosphine oxide] |
| – | – | – | 17 | CCn1cc(-c2cc(Nc3ncc(Br)c(Nc4ccc5nc(C6CC6)ccc5c4P(C)(C)=O)n3)c(OC)cc2N2CCOCC2)cn1 [Compound 24] |
